Test results as given in patent publication US8273771B2, “Ischemic disorder or disease inhibitors” (Pronas Pharma AB, priority 2007, dated 2012).

What was measured:
rats with induced SAH = assay: Physiological parameters in operated SAH rats; assay type: in vivo, rat; conditions: sham, SAH+vehicle and treated SAH groups
Excerpt: Subarachnoid hemorrhage was induced by a model originally devised by Svendgaard et al and carefully described by Prunell et al (2003). Male Sprague-Dawley rats (350-400 g) were anaesthetized using 5% halothane (Halocarbon Laboratories, River Edge, N.J.) in N2O/O2 (30:70). The rat was intubated and artificially ventilated with inhalation of 0.5-1.5% halothane in N2O/O2 (70:30) during the surgical procedure. The depth of anaesthesia was carefully monitored and the respiration checked by regularly withdrawing arterial blood samples for blood gas analysis (Radiometer, Copenhagen, Denmark). An electric temperature probe was inserted into the rectum of the rat to record the temperature, which was maintained at 37° C. An arterial catheter to measure blood pressure was placed in the tail artery and a catheter to monitor intracranial pressure (ICP) was placed in the subarachnoid space under the subocciptal membrane. At either side of the skull, 3 mm from the midline and 4 mm anteriorly from the bregma, holes were drilled through the skull bone down to dura mater (without perforation) allowing the placement of two laser-Doppler flow probes to measure cortical CBF. Finally, a 27G blunt canula with side hole was introduced 6.5 mm anterior to bregma in the midline at an angle of 30° to the vertical. With the aperture pointing to the right, the needle was lowered until the tip reached the skull base 2 to […] anterior to the chiasma. After 30 minutes of equilibration 250 μl blood was withdrawn from the tail catheter and injected intracranially via this canula at a pressure equal to the mean arterial blood pressure (MABP) (80-100 mmHg). Subsequently the rat was kept under anaesthesia for another 60 minutes to allow recovery from the cerebral insult after which catheters were removed and incisions closed. The rat was then revitalized and extubated. A subcutaneous injection of carprofen (4.0 mg/kg) (Pfizer, Denmark) was administered and the rat was hydrated subcutaneously using […] isotonic sodium chloride at the end of the operation and at day one.

MCA and BA from SAH rats = assay: Myograph contractile response to ET-1 in cerebral arteries of treated SAH rats; set-up: species or system rat; conditions: in vivo treated SAH rats compared to SAH rats, no significant difference to sham
Experimental: (§1) After 48 hours of observation sham, SAH treated with SB386023-b or treated with the PKC inhibitor RO-31-7549 or U0126 or SAH+vehicle operated rats (see above SAH model) were anaesthetized with CO2 and decapitated. The brains were quickly removed and chilled in ice-cold bicarbonate buffer solution (see composition below). Under a dissection microscope, the middle cerebral artery (MCA), the basilar artery (BA) and circle of Willis were carefully dissected free from the brain and cleared of connective tissue. The MCA and BA were immediately mounted in myographs for in vitro pharmacology or snap frozen at −80° C. and examined by real-time PCR.
In vitro Pharmacology Myograph Experiments For contractile experiments a sensitive myograph was used for recording the isometric tension in isolated cerebral arteries (Hogestatt et al., (1983, Mulvany and Helpern, 1977). The vessels were cut into 1 mm long cylindrical segments and mounted on two 40 μm in diameter stainless steel wires in a Myograph (Danish Myo Technology A/S, Denmark). One wire was connected to a force displacement transducer attached to an analog-digital converter unit (ADInstruments, Oxford, UK). The other wire was connected to a micrometer screw, allowing fine adjustments of vascular tone by varying the distance between the wires. Measurements were recorded on a computer by use of a PowerLab unit (ADInstruments). […]

[1] = test system: MCA and BA from rats with induced SAH; assay: Myograph contractile response to 5-CT in cerebral arteries of treated SAH rats; set-up: species or system rat; conditions: treatment in vivo, compared to SAH rats; for 5-CT contraction, first 5-HT1B and second 5-HT2A phases: BA; for 5-CT contraction Emax(1) / 5-CT contraction Emax(2), pEC50(1) and pEC50(2): MCA
Experimental: as §1
In vitro Pharmacology Myograph Experiments For contractile experiments a sensitive myograph was used for recording the isometric tension in isolated cerebral arteries (Hogestatt et al., (1983, Mulvany and Helpern, 1977). The vessels were cut into 1 mm long cylindrical segments and mounted on two 40 μm in diameter stainless steel wires in a Myograph (Danish Myo Technology A/S, Denmark). One wire was connected to a force displacement transducer attached to an analog-digital converter unit (ADInstruments, Oxford, UK). The other wire was connected to a micrometer screw, allowing fine adjustments of vascular tone by varying the distance between the wires. Measurements were recorded on a computer by use of a PowerLab unit (ADInstruments). The segments were immersed in a temperature controlled buffer solution (37° C.) of the following composition (mM) NaCl 119, NaHCO3 15, KCl 4.6, MgCl2 1.2, NaH2PO4 1.2, CaCl2 1.5 and glucose 5.5. The buffer was continuously aerated with oxygen enriched with 5% CO2 resulting in a pH of 7.4. The vessels were stretched to an initial resting tone of 2 mN and then allowed to stabilize at this tone for 1 hour. The contractile capacity was determined by exposing the vessels to an isotonic solution containing 63.5 mM of K+, obtained by partial change of NaCl for KCl in the above buffer. The contraction induced by K+ was used as reference for the contractile capacity. Only vessels responding by contraction of at least 2.0 mN to potassium for BA and 0.8 mN to potassium for MCA were included in the study. The presence of the endothelium was checked by precontracting the vessel using 5-HT (10^−6.5M) (Sigma, St Louis, USA) and subsequently exposing the segments to carbachol (10^−5 M) (Sigma, St Louis, USA). A relaxant response of the precontracted tension was considered indicative of a functional endothelium (Hansen-Schwartz et al., 2003a).
Concentration-response curves were obtained by cumulative application of 5-CT (Sigma, St. Louis, USA) in the concentration range 10^−12 to 10^−5 M, ET-1 (AnaSpec, San Jose, USA) in the concentration range 10^−14 to 10^−7 M and Ang II (Sigma, St. Louis, USA) in the concentration range 10^−12 to 10^−6 M. Before application of Ang II the arteries were pretreated with the AT2 receptor antagonist PD123319 (10^−5.5 M) for 30 minutes (a kind gift from Dr P. Morsing, Astra-Zeneca, Molndal, Sweden).
Data are expressed as mean±standard error of the mean (s.e.m.), and n refers to the number of rats. Statistical analyses were performed with Kruskal-Wallis non-parametric test with Dunn's post-hoc test, where P<0.05 was considered significant. In vitro Pharmacology Contractile responses in each segment are expressed as percentage of the 63.5 mM K+ induced contraction. Emax value represents the maximum contractile response elicited by an agonist and the pEC50 the negative logarithm of the drug concentration that elicited half the maximum response. For biphasic responses, Emax(1) and pEC50(1) describes the high affinity phase and Emax(2) and pEC50(2) describes the low affinity phase.

Structure (SMILES)	physiological parameters (MABP, pCO2, pO2, hematocrit, temperature), difference between groups (rats with induced SAH)	ET-1 induced contractile response (MCA and BA from SAH rats)	5-CT contraction, first 5-HT1B and second 5-HT2A phases [1]	5-CT contraction Emax(1) [1]	5-CT contraction Emax(2), pEC50(1) and pEC50(2) [1]
Cn1cc(C2=C(c3cn(CCCN)c4ccccc34)C(=O)NC2=O)c2ccccc21 [RO-31-7549]	No statistical difference	significantly attenuated	downregulated	significantly reduced	tendency to decrease
Oc1cc(-c2nc(-c3ccccc3)[nH]c2-c2ccncc2)ccc1Cl [SB386023-b]	No statistical difference	significantly attenuated	downregulated	significantly reduced	tended to decrease
N#CC(=C(/N)Sc1ccccc1N)/C(C#N)=C(\N)Sc1ccccc1N [U0126]	No statistical difference	–	–	significantly reduced	tended to decrease
